Data from patent publication US20250197428A1, “INHIBITORS OF KIF18A AND USES THEREOF” (ACCENT THERAPEUTICS, INC., priority 2022, published 2025).
Where two headings read alike, the source gives them in different places.

Key:
[1] = system: human megakaryocyte (CFU-MK) progenitors from human bone marrow mononuclear cells; assay: Human megakaryocyte progenitor colony formation assay (CFU-MK); assay type: cell-based; settings: 336 h, 14 days culture, adjusted for binding to assay buffer, read-out: Free-fraction adjusted CFU-MK IC50
[2] = Tolerability (body weight) in 28 day OVCAR-3 xenograft study; assay type: in vivo; settings: all concentrations dosed, 28 day treatment
OVCAR-3 cells = assay: In vitro anti-proliferative activity assay in cancer cell line OVCAR-3 (CellTiter-Glo, 4- or 7-day); assay type: cell-based; settings: read-out: OVCAR-3 cellular antiproliferation assay IC50
[3] = In vivo pharmacokinetic evaluation in mouse; design: species or system female balb/c nude mice; settings: for IV Clearance / Vd: 3 mg/kg IV; for Vd / Cmax / half-life: female, balb/c nude, plasma; for Vd: read-out: IV Vss; for Cmax / half-life: 10 mg/kg PO; for half-life: read-out: PO T1/2 (converted)
KIF18A = KIF18A (Homo sapiens (Human), UniProt Q8NI77); assay: KIF18A Biochemical Assay (ATPase, ADP-Glo)
Sequence of KIF18A (Q8NI77 1-367): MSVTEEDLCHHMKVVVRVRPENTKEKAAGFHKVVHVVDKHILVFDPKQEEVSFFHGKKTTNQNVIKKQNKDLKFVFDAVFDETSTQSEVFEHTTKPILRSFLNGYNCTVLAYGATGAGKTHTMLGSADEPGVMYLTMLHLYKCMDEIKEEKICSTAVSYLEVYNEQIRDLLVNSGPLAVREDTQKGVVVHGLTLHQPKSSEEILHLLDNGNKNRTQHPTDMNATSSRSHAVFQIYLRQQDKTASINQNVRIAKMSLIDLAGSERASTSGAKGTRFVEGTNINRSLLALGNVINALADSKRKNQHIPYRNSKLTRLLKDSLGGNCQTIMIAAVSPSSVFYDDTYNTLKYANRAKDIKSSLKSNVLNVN
Sequence of KIF18A (P02550 whole entry partner): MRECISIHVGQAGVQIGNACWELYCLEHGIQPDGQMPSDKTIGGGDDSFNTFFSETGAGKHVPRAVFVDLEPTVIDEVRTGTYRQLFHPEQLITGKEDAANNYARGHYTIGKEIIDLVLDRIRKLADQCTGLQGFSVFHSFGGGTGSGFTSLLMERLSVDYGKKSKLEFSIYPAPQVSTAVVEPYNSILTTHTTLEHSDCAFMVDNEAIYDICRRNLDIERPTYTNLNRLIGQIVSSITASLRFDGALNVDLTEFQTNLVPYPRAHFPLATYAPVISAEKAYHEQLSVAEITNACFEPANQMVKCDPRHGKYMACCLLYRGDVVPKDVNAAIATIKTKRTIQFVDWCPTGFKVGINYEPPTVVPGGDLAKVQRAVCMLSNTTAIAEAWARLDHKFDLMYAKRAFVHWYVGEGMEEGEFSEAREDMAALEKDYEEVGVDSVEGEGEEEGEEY
Sequence of KIF18A (P02554 whole entry partner): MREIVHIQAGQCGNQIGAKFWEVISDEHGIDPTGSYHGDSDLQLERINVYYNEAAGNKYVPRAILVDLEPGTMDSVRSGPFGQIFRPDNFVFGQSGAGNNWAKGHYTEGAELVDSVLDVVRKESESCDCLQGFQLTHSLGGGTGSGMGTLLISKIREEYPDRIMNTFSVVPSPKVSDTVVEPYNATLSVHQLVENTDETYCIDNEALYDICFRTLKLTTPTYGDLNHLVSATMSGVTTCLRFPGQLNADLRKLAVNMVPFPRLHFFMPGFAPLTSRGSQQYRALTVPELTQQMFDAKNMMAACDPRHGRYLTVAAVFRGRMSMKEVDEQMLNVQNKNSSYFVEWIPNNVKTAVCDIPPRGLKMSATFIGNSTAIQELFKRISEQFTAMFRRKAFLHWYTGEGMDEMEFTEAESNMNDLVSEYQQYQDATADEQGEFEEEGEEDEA

OVCAR-3 xenografts = assay: 28 day in vivo efficacy in OVCAR-3 xenografts; design: species or system female NOD SCID mice; settings: oral
Method: Experiments were performed in female NOD SCID mice (GenPharmatech Co.). Animals were allowed to acclimate for 7 days before the study. The general health of the animals were evaluated by a veterinarian, and complete health checks were performed prior to the study. General procedures for animal care and housing were in accordance with the standard, Commission on Life Sciences, National Research Council, Standard Operating Procedures (SOPs) of Pharmaron, Inc. The mice were kept in laminar flow rooms at constant temperature and humidity with 3-5 mice in each cage. Animals were housed in polycarbonate cages which had dimensions of 300×180×150 mm^3 and in an environmentally monitored, well-ventilated room maintained at a temperature of 23±3° C. and a relative humidity of 40%-70%. Fluorescent lighting provided illumination approximately 12 hours per day. Animals had free access to irradiation sterilized dry granule food during the entire study period except for time periods specified by the protocol, as well as sterile drinking water in a bottle that was available ad libitum during the quarantine and study periods.
The OVCAR-3 (ATCC) tumor cell lines were maintained in vitro as a monolayer in RPMI 1640 medium supplemented with 20% heat inactivated FBS, at 37° C. in an atmosphere of 5% CO2 in air. The tumor cells were sub-cultured, not exceeding 4-5 passages, and cells growing in an exponential growth phase were harvested and counted for tumor inoculation. Each mouse was inoculated subcutaneously on the right flank with OVCAR-3 tumor cells (2×10^7) in 0.2 mL of RPMI-1640 with Matrigel (1:1) for model development.
Treatment was started when the mean tumor size reached approximately 150-200 mm^3, at which time the mice were randomized into treatment groups such that the average starting tumor size is similar for each treatment group. Animals were then treated with vehicle or indicated mg/kg (10-100) of compound at a given frequency (e.g., BID, QD, 4 days on treatment followed by 3 days off treatment) by oral gavage at a final dosing volume of 10 mL/kg.
The measurement of tumor size was conducted with a caliper and recorded twice per […] week. The tumor volume (TV) (mm^3) was estimated using the formula: TV=a×b^2/2, where “a” and “b” are long and short diameters of a tumor, respectively.
The TVs were used for calculation of the tumor growth inhibition and tumor growth delay. For the tumor growth inhibition (TGI), the value using the formula: […]
The “TVfinal” and “TVinitial” are the mean tumor volumes on the final day and initial day, respectively.
All statistical tests was conducted on GraphPad, and the level of significance was set at 5% or P<0.05. The group means and standard deviations were calculated for all measurement parameters. Two-way RM ANOVA followed by Tukeys post hoc comparisons of the means was applied among groups.
Additionally, after compound treatment, the animals were observed an additional 28 days without compound treatment.
The initial treatment period with Example 1 was 28 days, after which overall efficacy and tolerability were evaluated based on tumor volume and body weight changes observed during the treatment period (FIG. 2a and FIG. 2b).
The initial treatment period with Example 1 was 28 days, after which overall efficacy and tolerability were evaluated based on tumor volume and body weight changes observed during the treatment period (FIG. 3a and FIG. 3b).

[4] = Caco-2 permeation assay, bidirectional permeability; assay type: in vitro ADME; settings: human, Caco-2, pH 7.4, 5 μM, Papp(B-A)/Papp(A-B)
Procedure, shortened: (§1)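 Bidirectional A→B and B→A transport of 5 μM compound in HBSS (10 mM HEPES, pH 7.4), receiver containing 2% BSA, 2 h at 37 °C on 14-day monolayers. Papp from LC-MS/MS peak areas; efflux ratio Papp(B-A)/Papp(A-B), plus recovery. Lucifer Yellow leakage <1% required for monolayer acceptance.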

Caco-2 cell monolayers = assay: as above; assay type: in vitro ADME; settings: 5 μM, 2 h, Papp(B-A)/Papp(A-B)
Procedure, shortened: as §1

[5] = Homo sapiens, OVCAR-3, 96 h, 4-day assay
[6] = day 28, 100 mg/kg once daily for 4 days followed by 3 days of no dosing

SMILES	IC50 [1] [µM]	Tolerability based on body weight [2]	IC50 (OVCAR-3 cells; [5]) [µM]	IV Clearance [3] [mL/ming/kg]	Vd [3] [L/kg]	Cmax [3] [µg/mL]	half-life [3] [h]	IC50 (KIF18A) [µM]	% T/C (OVCAR-3 xenografts; [6]) [%]	% TGI (OVCAR-3 xenografts; [6]) [%]	efflux ratio at 2 h, 5 μM [4]	% T/C (OVCAR-3 xenografts; day 28, 100 mg/kg once daily) [%]	% TGI (OVCAR-3 xenografts; day 28, 100 mg/kg once daily) [%]	IC50 (OVCAR-3 cells; 7-day assay) [µM]	Caco-2 assay efflux ratio (Caco-2 cell monolayers)
Cc1cc(NC(=O)c2ccc(NS(=O)(=O)CCO)cc2N2CC[Si](C)(C)CC2)nc(C2CCC(F)(F)CC2)n1 [Example 1, N-(2-(4,4-difluorocyclohexyl)-6-methylpyrimidin-4-yl)-2-(4,4-dimethyl-1,4-azasilinan-1-yl)-4-((2-hydroxyethyl)sulfonamido)benzamide]	0.017	well tolerated	< 0.1	3.6	2.7	2.9	8.9	< 0.1	−2	102	< 10	–	–	–	–
Cc1cc(NC(=O)c2ccc(NS(=O)(=O)CCO)cc2N2CC[Si](C)(C)CC2)nc(N2CCC(F)(F)CC2)n1 [Example 9, N-[2-(4,4-difluoropiperidin-1-yl)-6-methylpyrimidin-4-yl]-2-(4,4-dimethyl-1,4-azasilinan-1-yl)-4-(2-hydroxyethanesulfonamido)benzamide]	–	well tolerated	< 0.1	1.7	2.5	3.1	14.5	0.1 to 0.5	–	–	< 10	−4	104	–	–
Cc1cc(NC(=O)c2ccc(NS(=O)(=O)CCO)cc2N2CC[C@]3(C(F)F)C[C@@H]3C2)nc(N2CCC(F)(F)CC2)n1 [Example 86]	–	–	–	–	–	–	–	< 0.1	–	–	–	–	–	0.1 to 0.5	** (“**” means efflux ratio of <10)
